# Results published in patent US20190275040A1, “COMPOUNDS AND METHODS FOR TREATING OR PREVENTING ALZHEIMER'S DISEASE” (YALE UNIVERSITY, priority 2016, published 2019).
# Legend:
# APP/PS1 mice = settings: cited from earlier work
# Pyk2 [1] = target: T1, Pyk2 (Homo sapiens, UniProt Q14289); test: Pyk2 Ki of kinase inhibitors (CHEMBL & IUPHR-BPS database screen, Table 2); type: biochemical; settings: Pyk2 versus Fyn
# Pyk2 [2] = target: T1, Pyk2; settings: read-out: Pyk2 Ki; cited from earlier work
# [3] = test system: cultured hippocampal neurons; test: Graf1c knockdown-induced dendritic spine loss in cultured hippocampal neurons; type: cell-based, mouse; settings: 10 μM
# Procedure: FIGS. 17A-17B illustrate the finding that Graf1 is a functional GTPase activating protein (GAP) in mature neurons and regulates dendritic spine formation. FIG. 17A: Representative fluorescence images of cultured hippocampal neurons. […] Scale bar, 10 μm. FIG. 17B: Quantification of dendritic spine density in the transfected neurons.
# Next, it was evaluated whether RhoA activity is necessary for Pyk2-induced decrease in dendritic spine density. As described elsewhere herein, overexpression of GFP-Pyk2 induces loss of half of hippocampal neuron dendritic spines (FIGS. 10E-10F). […] Therefore, Pyk2 interacts with Graf1c within dendritic spines to allow increased RhoA-GTP levels and subsequent reduced synapse density.
# [4] = test system: primary hippocampal neurons; test: Dendritic spine motility in primary hippocampal neurons; type: cell-based, mouse
# Source text: FIG. 11A: Representative images of dendritic spine motility by standard deviation projection of time-lapse image. […] The standard deviation value for each pixel is shown by thermal color scale. […] FIG. 11B: Quantification of spine motility, expressed as % of changed area of spines with subtraction of changed area of dendritic shaft as background (changed area=(ΔAspine/Aspine×100)−(ΔAshaft/Ashaft×100)). […] Data are graphed as mean±SEM (n=7-8 coverslips from 3 different cultures). **p<0.01, ***p<0.001 by ANOVA, Tukey's multiple comparisons test.
# FIG. 18A: Representative images of dendritic spine motility by standard deviation projection of time stacks. […] To display the spine motility in time-lapse images, the time stack images over 5 min of each conditions were projected to standard deviation using Image J and color coated with thermal color scale. […] FIG. 18B: Quantification of spine motility, expressed as % of changed area of spines with subtraction of dendritic shaft area change (changed area=(ΔAspine/Aspine×100)−(ΔAshaft/Ashaft×100)). Mean±SEM (n=5 coverslips).
# Time-lapse images were acquired for 5 minutes with 10 second intervals in Tyrode's solution using 60× objective lens driven Volocity software. Time-lapse images (31 time frames over 5 min) were subjected to standard deviation (STD) projection to visualize spine motility in single image and colorized with thermal scale using ImageJ software (NIH). Quantitative measurements of spine motility by calculating the changed area at individual dendritic spines were conducted by using ImageJ software by an observer unaware of treatment group.
# T1 sequence (Q14289 whole entry, species assumed): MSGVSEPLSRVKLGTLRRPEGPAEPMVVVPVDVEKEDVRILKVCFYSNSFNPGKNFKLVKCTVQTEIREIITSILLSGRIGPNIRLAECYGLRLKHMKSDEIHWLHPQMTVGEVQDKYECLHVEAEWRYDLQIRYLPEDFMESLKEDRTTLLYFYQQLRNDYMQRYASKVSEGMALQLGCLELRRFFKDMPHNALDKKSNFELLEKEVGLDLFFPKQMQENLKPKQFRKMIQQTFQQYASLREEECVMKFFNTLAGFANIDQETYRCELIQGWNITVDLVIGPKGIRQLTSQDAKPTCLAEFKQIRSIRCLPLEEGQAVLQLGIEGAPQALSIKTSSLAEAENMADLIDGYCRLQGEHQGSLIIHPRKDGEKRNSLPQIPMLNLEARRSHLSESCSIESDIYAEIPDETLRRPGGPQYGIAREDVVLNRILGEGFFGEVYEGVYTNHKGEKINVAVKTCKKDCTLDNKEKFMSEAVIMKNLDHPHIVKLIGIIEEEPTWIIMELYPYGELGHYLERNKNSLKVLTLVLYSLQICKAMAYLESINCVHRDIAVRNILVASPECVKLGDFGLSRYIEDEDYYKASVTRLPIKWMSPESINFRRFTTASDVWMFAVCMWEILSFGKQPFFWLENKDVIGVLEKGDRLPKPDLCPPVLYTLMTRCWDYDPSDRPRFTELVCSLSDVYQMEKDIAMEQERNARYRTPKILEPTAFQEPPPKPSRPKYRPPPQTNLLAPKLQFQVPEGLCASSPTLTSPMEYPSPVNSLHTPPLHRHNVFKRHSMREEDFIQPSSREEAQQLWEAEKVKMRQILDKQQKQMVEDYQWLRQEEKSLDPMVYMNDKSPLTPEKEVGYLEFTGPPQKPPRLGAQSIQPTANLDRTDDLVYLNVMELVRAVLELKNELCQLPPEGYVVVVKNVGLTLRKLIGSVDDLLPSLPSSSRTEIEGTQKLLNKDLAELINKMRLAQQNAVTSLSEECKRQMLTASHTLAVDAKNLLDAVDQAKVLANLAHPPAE
smiles,measurement,setting,value
"CN1CCN(CCOc2cc(OC3CCOCC3)c3c(Nc4c(Cl)ccc5c4OCO5)ncnc3c2)CC1 [AZD-0530, N-(5-chloro-1,3-benzodioxol-4-yl)-7-[2-(4-methyl-1-piperazinyl)ethoxy]-5-[(tetrahydro-2H-pyran-4-yl)oxy]-4-quinazolinamine]",memory deficits and synapse loss in APP/PS1 mice,"APP/PS1 mice; mouse, in vivo",rescuing memory deficits and synapse loss
same,activated p-Pyk2 level in transgenic mice,APP/PS1 mice; transgenic mice have a two-fold increase,reduces this level to that of WT mice
same,Inhibition Character,Pyk2 [1],Fyn selective
same,Ki,Pyk2 [2],> 1 µM
"Cc1cc(N2CCOCC2)cc2nc(-c3c(NCC(O)c4cccc(Cl)c4)cc[nH]c3=O)[nH]c12 (centres unmarked) [Compound 5, 4-((2-(3-chlorophenyl)-2-hydroxyethyl)amino)-3-(7-methyl-5-morpholino-1H-benzo[d]imidazol-2-yl)pyridin-2(1H)-one]",Inhibition Character,Pyk2 [1],dual Pyk2-Fyn
"Cn1cc(-c2cnc(N)c3c(-c4ccc(NC(=O)Nc5ccc(OC(F)F)cc5)cc4)csc23)cn1 [Compound 6, 1-(4-(4-amino-7-(1-methyl-1H-pyrazol-4-yl)thieno[3,2-c]pyridin-3-yl)phenyl)-3-(4-(difluoromethoxy)phenyl)urea]",Inhibition Character,Pyk2 [1],dual Pyk2-Fyn
"Cc1cnc(Nc2cccc(S(N)(=O)=O)c2)nc1Nc1ccc(OCC(N)=O)cc1 [Compound 8, 2-(4-((5-methyl-2-((3-sulfamoylphenyl)amino)pyrimidin-4-yl)amino)phenoxy)acetamide]",Inhibition Character,Pyk2 [1],dual Pyk2-Fyn
C[C@@H](N)[C@H]1CC[C@H](C(=O)Nc2ccncc2)CC1 [Compound Y27632],Graf1c-knockdown-induced spine loss,[3],rescue Graf1c-knockdown-induced spine loss
same,Aβo-induced decrease in spine motility,"[4]; Aβo 24 hours, PF-719 1 μM, Y27632 10 μM",rescue fully the Aβo-induced decrease in spine motility
"C[C@]12O[C@H](C[C@]1(O)CO)n1c3ccccc3c3c4c(c5c6ccccc6n2c5c31)CNC4=O [Lestaurtinib, (5S,6S,8R)-6-Hydroxy-6-(hydroxymethyl)-5-methyl-7,8,14,15-tetrahydro-5H-16-oxa-4b,8a,14-triaza-5,8-methanodibenzo[b,h]cycloocta[jkl]cyclopenta[e]-as-indacen-13(6H)-one]",Inhibition Character,Pyk2 [1],dual Pyk2-Fyn
C=C1[C@@H](C)[C@H]2[C@H](Cc3ccccc3)NC(=O)[C@]23[C@H](OC(C)=O)/C=C/[C@@](C)(O)C(=O)[C@@H](C)C/C=C/[C@H]3[C@@H]1O [cytochalasin D],spine motility (actin dependence),"[4]; 1 μm Cytochalasin D for 20 minutes, no Aβo",near complete cessation of spine motility
